From ChEMBL document CHEMBL3132769, “Fragment growing to retain or alter the selectivity of anchored kinase hinge-binding fragments” (Medchemcomm, 2014)

How the values were obtained:
[1] = target: MAP kinase p38 (Homo sapiens) (UniProt O15264+Q15759+Q16539+P53778); assay: Inhibition of human full length p38 beta2 expressed in Escherichia coli cell assessed as substrate phosphorylation using fluorescence-labelled peptides as substrate at 0.2 uM after 90 mins by microfluidic peptide phosphorylation assay
[2] = target: Vascular endothelial growth factor receptor 2 (Homo sapiens) (UniProt P35968); assay: Inhibition of human KDR cytoplasmic domain expressed in baculovirus assessed as substrate phosphorylation using fluorescence-labelled peptides as substrate at 0.2 uM after 90 mins by microfluidic peptide phosphorylation assay
Vascular endothelial growth factor receptor 2 (Homo sapiens), sequence (P35968 whole entry, the tested form may be a part): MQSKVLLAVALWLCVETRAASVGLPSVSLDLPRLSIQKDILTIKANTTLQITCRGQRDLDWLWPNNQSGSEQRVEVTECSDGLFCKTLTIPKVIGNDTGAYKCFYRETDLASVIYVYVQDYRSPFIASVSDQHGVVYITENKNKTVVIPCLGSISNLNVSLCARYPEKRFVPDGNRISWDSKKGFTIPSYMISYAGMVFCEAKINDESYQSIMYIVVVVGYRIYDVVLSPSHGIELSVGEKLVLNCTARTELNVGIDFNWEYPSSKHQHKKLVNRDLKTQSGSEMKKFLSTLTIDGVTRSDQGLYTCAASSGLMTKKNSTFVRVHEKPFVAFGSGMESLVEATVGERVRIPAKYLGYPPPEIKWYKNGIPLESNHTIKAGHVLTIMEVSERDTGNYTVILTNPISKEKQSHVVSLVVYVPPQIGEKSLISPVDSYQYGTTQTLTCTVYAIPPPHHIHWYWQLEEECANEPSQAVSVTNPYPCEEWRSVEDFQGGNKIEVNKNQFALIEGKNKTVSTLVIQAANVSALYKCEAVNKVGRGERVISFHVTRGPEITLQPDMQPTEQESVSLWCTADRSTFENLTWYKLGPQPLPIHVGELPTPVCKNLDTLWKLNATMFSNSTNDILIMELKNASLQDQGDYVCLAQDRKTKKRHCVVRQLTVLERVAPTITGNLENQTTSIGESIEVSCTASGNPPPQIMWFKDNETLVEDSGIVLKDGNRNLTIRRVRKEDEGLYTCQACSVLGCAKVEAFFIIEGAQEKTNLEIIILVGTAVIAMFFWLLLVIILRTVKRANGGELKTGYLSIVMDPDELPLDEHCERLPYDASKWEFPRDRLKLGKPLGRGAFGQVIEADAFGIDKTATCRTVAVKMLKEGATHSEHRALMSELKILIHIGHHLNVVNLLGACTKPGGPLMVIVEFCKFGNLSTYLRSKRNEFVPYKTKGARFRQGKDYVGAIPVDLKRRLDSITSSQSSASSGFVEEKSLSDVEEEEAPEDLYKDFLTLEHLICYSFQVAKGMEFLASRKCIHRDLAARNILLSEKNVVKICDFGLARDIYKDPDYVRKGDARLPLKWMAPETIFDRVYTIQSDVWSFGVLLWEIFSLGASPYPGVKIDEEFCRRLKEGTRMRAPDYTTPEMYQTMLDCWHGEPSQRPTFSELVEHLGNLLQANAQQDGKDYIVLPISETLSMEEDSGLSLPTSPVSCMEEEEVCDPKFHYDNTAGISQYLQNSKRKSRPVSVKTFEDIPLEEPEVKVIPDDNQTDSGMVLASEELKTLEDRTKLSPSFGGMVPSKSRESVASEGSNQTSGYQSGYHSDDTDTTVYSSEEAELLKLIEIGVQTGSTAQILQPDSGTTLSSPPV

[3] = target: T1, Serine/threonine-protein kinase Sgk1 (Homo sapiens) (UniProt O00141); assay: Inhibition of human truncated SGK1 expressed in baculovirus assessed as substrate phosphorylation using fluorescence-labelled peptides as substrate at 8 uM after 90 mins by microfluidic peptide phosphorylation assay
T1 sequence (whole entry): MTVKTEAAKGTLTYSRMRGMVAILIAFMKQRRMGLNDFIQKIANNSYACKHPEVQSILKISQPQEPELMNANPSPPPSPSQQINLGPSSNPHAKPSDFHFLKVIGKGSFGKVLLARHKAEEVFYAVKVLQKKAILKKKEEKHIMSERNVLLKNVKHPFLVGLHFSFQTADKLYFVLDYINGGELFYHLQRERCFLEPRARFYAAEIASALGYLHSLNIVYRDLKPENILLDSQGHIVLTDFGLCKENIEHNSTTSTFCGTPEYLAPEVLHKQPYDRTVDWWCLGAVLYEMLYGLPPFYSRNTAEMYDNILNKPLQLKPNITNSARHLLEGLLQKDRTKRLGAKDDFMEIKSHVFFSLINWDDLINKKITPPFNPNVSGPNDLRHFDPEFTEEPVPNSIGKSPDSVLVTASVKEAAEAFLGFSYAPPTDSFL

[4] = target: Tyrosine-protein kinase ABL2 (Homo sapiens) (UniProt P42684); assay: Inhibition of human truncated Arg expressed in baculovirus assessed as substrate phosphorylation using fluorescence-labelled peptides as substrate at 1000 uM after 90 mins by microfluidic peptide phosphorylation assay
Tyrosine-protein kinase ABL2 (Homo sapiens), sequence (P42684 whole entry, the tested form may be a part): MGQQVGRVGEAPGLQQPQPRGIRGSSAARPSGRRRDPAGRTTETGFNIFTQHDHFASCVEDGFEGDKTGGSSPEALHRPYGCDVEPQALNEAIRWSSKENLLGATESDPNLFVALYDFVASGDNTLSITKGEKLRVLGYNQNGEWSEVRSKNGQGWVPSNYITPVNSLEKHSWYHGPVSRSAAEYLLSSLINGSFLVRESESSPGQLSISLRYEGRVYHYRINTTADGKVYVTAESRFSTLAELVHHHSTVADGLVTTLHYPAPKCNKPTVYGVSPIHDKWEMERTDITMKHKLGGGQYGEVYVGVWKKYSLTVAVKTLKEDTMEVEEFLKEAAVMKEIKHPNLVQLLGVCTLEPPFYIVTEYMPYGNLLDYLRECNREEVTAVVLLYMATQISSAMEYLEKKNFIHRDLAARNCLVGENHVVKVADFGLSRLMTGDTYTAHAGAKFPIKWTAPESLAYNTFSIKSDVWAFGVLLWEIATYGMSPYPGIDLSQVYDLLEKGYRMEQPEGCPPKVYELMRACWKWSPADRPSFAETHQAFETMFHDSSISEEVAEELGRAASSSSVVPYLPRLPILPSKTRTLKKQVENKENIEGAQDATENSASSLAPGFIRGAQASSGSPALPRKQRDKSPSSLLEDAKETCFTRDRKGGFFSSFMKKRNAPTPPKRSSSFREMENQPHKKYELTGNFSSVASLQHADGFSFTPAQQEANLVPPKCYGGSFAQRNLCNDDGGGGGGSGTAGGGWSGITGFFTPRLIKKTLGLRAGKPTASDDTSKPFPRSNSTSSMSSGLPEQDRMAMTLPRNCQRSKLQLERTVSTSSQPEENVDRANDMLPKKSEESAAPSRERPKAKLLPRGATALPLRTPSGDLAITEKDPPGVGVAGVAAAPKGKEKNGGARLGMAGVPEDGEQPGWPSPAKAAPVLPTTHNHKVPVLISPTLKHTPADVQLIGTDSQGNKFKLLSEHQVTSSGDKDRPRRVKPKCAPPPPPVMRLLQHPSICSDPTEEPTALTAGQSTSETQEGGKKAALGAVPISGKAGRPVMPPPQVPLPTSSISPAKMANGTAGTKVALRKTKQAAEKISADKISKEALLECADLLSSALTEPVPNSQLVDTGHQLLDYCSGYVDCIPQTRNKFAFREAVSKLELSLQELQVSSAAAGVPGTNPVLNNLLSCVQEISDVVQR

[5] = target: Ribosomal protein S6 kinase alpha-5 (Homo sapiens) (UniProt O75582); assay: Inhibition of human full length MSK1 expressed in baculovirus assessed as substrate phosphorylation using fluorescence-labelled peptides as substrate at 1000 uM after 90 mins by microfluidic peptide phosphorylation assay
Ribosomal protein S6 kinase alpha-5 (Homo sapiens), sequence (O75582 whole entry, looked up): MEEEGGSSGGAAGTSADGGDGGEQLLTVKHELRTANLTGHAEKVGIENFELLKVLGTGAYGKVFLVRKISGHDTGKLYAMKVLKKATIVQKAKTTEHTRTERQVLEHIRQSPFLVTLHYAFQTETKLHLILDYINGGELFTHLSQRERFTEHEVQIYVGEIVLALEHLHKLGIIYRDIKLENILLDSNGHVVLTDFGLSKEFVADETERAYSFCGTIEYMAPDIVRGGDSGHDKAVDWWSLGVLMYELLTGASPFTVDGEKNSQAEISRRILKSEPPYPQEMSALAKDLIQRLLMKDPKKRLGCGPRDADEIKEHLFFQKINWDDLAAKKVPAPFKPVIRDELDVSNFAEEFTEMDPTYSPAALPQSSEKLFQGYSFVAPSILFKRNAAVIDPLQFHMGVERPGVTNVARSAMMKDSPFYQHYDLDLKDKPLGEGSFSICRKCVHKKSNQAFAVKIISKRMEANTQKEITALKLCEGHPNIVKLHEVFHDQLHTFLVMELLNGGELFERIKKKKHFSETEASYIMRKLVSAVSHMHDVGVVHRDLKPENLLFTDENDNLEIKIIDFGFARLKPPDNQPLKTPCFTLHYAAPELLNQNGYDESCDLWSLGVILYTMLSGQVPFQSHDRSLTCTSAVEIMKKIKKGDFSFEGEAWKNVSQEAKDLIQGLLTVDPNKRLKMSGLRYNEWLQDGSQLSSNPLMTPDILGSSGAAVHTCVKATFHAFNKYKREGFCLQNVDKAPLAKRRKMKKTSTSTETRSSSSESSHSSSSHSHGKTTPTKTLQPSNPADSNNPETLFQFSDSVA

[6] = target: T2, cGMP-dependent protein kinase 1 (Homo sapiens) (UniProt Q13976); assay: Inhibition of human full length PKG-1beta expressed in baculovirus assessed as substrate phosphorylation using fluorescence-labelled peptides as substrate at 0.06 uM after 90 mins by microfluidic peptide phosphorylation assay
T2 sequence (whole entry): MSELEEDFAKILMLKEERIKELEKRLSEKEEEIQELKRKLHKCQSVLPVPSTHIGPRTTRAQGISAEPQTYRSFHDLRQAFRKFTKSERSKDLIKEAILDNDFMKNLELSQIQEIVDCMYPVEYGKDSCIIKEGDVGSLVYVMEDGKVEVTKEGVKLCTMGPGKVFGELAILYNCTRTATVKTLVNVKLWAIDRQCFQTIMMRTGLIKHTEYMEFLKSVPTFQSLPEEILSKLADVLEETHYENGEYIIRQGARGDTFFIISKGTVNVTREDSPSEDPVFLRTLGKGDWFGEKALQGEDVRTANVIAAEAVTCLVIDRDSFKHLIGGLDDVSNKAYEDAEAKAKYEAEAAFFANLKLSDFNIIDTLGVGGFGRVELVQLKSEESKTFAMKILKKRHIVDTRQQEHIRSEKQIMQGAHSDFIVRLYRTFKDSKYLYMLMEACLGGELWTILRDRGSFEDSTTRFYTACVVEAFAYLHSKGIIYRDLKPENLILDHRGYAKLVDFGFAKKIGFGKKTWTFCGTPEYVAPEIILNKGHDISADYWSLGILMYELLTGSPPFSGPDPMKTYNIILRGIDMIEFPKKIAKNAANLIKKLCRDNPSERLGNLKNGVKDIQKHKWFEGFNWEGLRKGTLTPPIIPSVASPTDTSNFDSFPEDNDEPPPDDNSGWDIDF

[7] = target: Mitogen-activated protein kinase 1 (Homo sapiens) (UniProt P28482); assay: Inhibition of human full length ERK2 expressed in Escherichia coli cell assessed as substrate phosphorylation using fluorescence-labelled peptides as substrate at 0.06 uM after 90 mins by microfluidic peptide phosphorylation assay
Mitogen-activated protein kinase 1 (Homo sapiens), sequence (P28482 whole entry, the tested form may be a part): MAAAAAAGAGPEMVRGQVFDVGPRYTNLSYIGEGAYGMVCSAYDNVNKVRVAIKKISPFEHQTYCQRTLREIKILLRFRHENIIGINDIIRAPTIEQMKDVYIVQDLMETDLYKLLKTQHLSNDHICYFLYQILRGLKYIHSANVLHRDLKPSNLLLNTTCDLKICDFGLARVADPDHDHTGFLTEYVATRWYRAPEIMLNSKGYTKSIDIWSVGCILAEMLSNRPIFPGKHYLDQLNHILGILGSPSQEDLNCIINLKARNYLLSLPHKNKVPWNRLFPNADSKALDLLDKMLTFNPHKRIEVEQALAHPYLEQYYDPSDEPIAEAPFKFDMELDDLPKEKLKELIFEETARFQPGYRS

[8] = target: T1, Serine/threonine-protein kinase Sgk1 (Homo sapiens); assay: Inhibition of human truncated SGK1 expressed in baculovirus assessed as substrate phosphorylation using fluorescence-labelled peptides as substrate at 9 uM after 90 mins by microfluidic peptide phosphorylation assay
[9] = target: T3, Serine/threonine-protein kinase DCLK2 (Homo sapiens) (UniProt Q8N568); assay: Inhibition of human full length DCAMKL2 expressed in baculovirus assessed as substrate phosphorylation using fluorescence-labelled peptides as substrate at 70 uM after 90 mins by microfluidic peptide phosphorylation assay
T3 sequence (whole entry): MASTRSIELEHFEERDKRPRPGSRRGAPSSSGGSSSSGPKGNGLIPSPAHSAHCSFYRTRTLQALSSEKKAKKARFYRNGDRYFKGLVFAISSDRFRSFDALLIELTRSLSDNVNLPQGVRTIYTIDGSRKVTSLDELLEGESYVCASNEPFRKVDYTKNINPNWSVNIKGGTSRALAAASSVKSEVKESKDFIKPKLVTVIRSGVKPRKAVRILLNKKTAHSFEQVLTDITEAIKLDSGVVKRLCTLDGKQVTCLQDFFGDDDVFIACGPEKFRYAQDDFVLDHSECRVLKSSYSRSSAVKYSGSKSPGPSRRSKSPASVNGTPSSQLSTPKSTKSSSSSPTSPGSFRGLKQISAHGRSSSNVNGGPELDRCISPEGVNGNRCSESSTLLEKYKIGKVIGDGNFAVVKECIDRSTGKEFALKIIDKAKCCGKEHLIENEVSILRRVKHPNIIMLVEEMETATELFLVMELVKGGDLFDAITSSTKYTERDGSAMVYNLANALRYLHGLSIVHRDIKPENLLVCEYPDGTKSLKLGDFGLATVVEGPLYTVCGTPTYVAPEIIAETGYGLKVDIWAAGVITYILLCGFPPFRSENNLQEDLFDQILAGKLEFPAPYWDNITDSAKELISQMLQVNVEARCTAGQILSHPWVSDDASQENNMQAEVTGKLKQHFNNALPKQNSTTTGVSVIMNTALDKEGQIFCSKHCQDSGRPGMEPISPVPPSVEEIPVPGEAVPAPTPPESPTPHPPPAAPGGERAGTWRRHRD

## Clc1ccc(C2(c3ccc(-c4ncnc5[nH]cnc45)cc3)CCNCC2)cc1
[1]
  inhibition: 2.5%
[2]
  inhibition: 9%

## NCC1CCN(c2ncnc3[nH]ccc23)CC1
[3]
  inhibition: 59%

## c1cnc2[nH]ccc2c1
[4]
  inhibition: 40%
[5]
  inhibition: 87%

## NC1(Cc2ccc(Cl)cc2)CCN(c2ncnc3[nH]ccc23)CC1
[6]
  inhibition: 0%
[7]
  inhibition: 4.5%

## NCC1CN(c2ncnc3[nH]c4cnccc4c23)CCO1 (centres undefined)
[8]
  inhibition: 51%

## CNCc1ccc(-c2ncnc3[nH]cnc23)cc1
[9]
  inhibition: 20.5%
